Values after ≈ are worked out from the molar mass of the structure shown. Each block holds one compound with its values, some of them ahead of it.
Tests used:
Test in all cases: ≥ marks a high value that may be exact or a test limit, other limits are often not marked, values filed in µg/mL are converted to µM
[1] = system: Staphylococcus aureus NCTC 12493
[2] = system: Escherichia coli NCTC 10418
[3] = system: Staphylococcus aureus NCTC 10788
[4] = system: Pseudomonas aeruginosa ATCC 27853
[5] = system: Candida albicans NCYC 1467
[6] = system: Enterococcus faecalis NCTC 12697
[7] = system: Acinetobacter baumannii NM35
[8] = system: Acinetobacter baumannii NM124
[9] = system: Escherichia coli ATCC 25726
[10] = system: Staphylococcus aureus ATCC 25923
[11] = system: Acinetobacter baumannii NM8
Acinetobacter baumannii = system: Acinetobacter baumannii
[12] = system: Acinetobacter baumannii NM109
[13] = system: Candida albicans ATCC 90028
[14] = system: Acinetobacter baumannii NM75
Candida albicans = system: Candida albicans
Escherichia coli MG1655 = system: Escherichia coli MG1655
[15] = system: Pseudomonas aeruginosa PAO1
[16] = system: Pseudomonas aeruginosa H1001
Pseudomonas aeruginosa = system: Pseudomonas aeruginosa
Streptococcus pyogenes = system: Streptococcus pyogenes
Proteus mirabilis = system: Proteus mirabilis
Staphylococcus aureus = system: Staphylococcus aureus

Compound: CSCC[C@H](NC(=O)[C@H](CC(=O)O)NC(=O)[C@@H](NC(=O)[C@@H](NC(=O)[C@H](C)NC(=O)[C@H](CC(N)=O)NC(=O)[C@H](CC(C)C)NC(=O)[C@H](C)NC(=O)[C@H](C)NC(=O)[C@H](CCCCN)NC(=O)CNC(=O)[C@H](C)NC(=O)[C@H](C)NC(=O)[C@H](CCCCN)NC(=O)CNC(=O)[C@@H](NC(=O)[C@H](CC(N)=O)NC(=O)[C@H](CCCCN)NC(=O)[C@H](CC(C)C)NC(=O)[C@H](CC(C)C)NC(=O)[C@H](CO)NC(=O)[C@H](CCCCN)NC(=O)[C@H](Cc1c[nH]c2ccccc12)NC(=O)[C@H](CC(C)C)NC(=O)[C@H](C)N)C(C)C)C(C)C)[C@@H](C)O)C(=O)N[C@H](C(=O)N[C@@H](CC(N)=O)C(=O)N[C@@H](CCC(N)=O)C(N)=O)C(C)C [ALWKSLLKNVGKAAGKAALNAVTDMVNQ]
MIC [1]: 4 µM (≈ 11.6 µg/mL) | MIC [2]: 4 µM (≈ 11.6 µg/mL) | MIC [3]: 4 µM (≈ 11.6 µg/mL) | MIC [4]: 4 µM (≈ 11.6 µg/mL) | MIC [5]: 4 µM (≈ 11.6 µg/mL) | MIC [6]: ≥ 64 µM

Compound: CC[C@H](C)[C@H](NC(=O)CNC(=O)CNC(=O)[C@H](C)NC(=O)[C@@H](NC(=O)[C@H](CCCCN)NC(=O)[C@@H]1CCCN1C(=O)[C@@H](NC(=O)[C@H](CC(C)C)NC(=O)[C@H](CO)NC(=O)[C@H](CC(C)C)NC(=O)[C@@H](N)Cc1ccccc1)[C@@H](C)CC)[C@@H](C)CC)C(=O)N[C@@H](C)C(=O)N[C@@H](C)C(=O)N[C@@H](CC(C)C)C(=O)N[C@@H](C)C(=O)N[C@@H](CCCCN)C(=O)N[C@@H](Cc1cnc[nH]1)C(=O)N[C@@H](CC(C)C)C(N)=O [FLSLIPKIAGGIAALAKHL]
MIC [1]: 4.14 µM (≈ 8 µg/mL) | MIC [2]: 16.6 µM (≈ 32 µg/mL) | MIC [3]: 4.14 µM (≈ 8 µg/mL) | MIC [5]: 2.07 µM (≈ 4 µg/mL) | MIC [6]: 16.6 µM (≈ 32 µg/mL)

Compound: CC[C@H](C)[C@H](NC(=O)[C@H](CCCCN)NC(=O)[C@H](CCCCN)NC(=O)[C@H](Cc1cnc[nH]1)NC(=O)[C@@H](NC(=O)[C@H](CCCN=C(N)N)NC(=O)[C@H](CS)NC(=O)[C@H](CC(C)C)NC(=O)[C@H](CC(C)C)NC(=O)[C@@H](N)CCCCN)C(C)C)C(=O)O [KLLCRVHKKI]
MIC [16]: ≥ 40.4 µM

Compound: NCCCC[C@H](NC(=O)[C@H](CCCCN)NC(=O)[C@H](Cc1c[nH]c2ccccc12)NC(=O)[C@H](CCCCN)NC(=O)[C@H](Cc1c[nH]c2ccccc12)NC(=O)[C@H](Cc1c[nH]c2ccccc12)NC(=O)[C@H](CCCCN)NC(=O)[C@H](Cc1c[nH]c2ccccc12)NC(=O)[C@@H](N)CCCCN)C(N)=O [KWKWWKWKK]
MIC [16]: ≥ 89 µM

Compound: NC(N)=NCCC[C@H](NC(=O)[C@H](CCCN=C(N)N)NC(=O)[C@H](CCCN=C(N)N)NC(=O)[C@H](CCCN=C(N)N)NC(=O)[C@H](Cc1c[nH]c2ccccc12)NC(=O)[C@H](Cc1c[nH]c2ccccc12)NC(=O)[C@H](Cc1c[nH]c2ccccc12)NC(=O)[C@H](Cc1c[nH]c2ccccc12)NC(=O)[C@H](CCCN=C(N)N)NC(=O)[C@H](CCCN=C(N)N)NC(=O)[C@H](CCCN=C(N)N)NC(=O)[C@@H](N)CCCN=C(N)N)C(=O)O [RRRRWWWWRRRR]
MIC (Pseudomonas aeruginosa): > 31.8 µM | MIC (Streptococcus pyogenes): 0.807 µM (≈ 1.62 µg/mL) | MIC (Proteus mirabilis): 31.8 µM (≈ 64 µg/mL) | MIC (Staphylococcus aureus): 3.98 µM (≈ 8 µg/mL)

Compound: CC[C@H](C)[C@H](NC(=O)[C@H](CCCN=C(N)N)NC(=O)[C@H](CCCN=C(N)N)NC(=O)[C@@H]1CCCN1C(=O)[C@H](Cc1ccc(O)cc1)NC(=O)[C@H](CCCN=C(N)N)NC(=O)[C@@H]1CCCN1C(=O)[C@H](CCCN=C(N)N)NC(=O)[C@@H]1CCCN1C(=O)[C@H](CC(C)C)NC(=O)[C@H](Cc1ccc(O)cc1)NC(=O)[C@@H]1CCCN1C(=O)[C@@H]1CCCN1C(=O)[C@H](CCCCN)NC(=O)[C@H](CC(=O)O)NC(=O)[C@@H](N)C(C)C)C(=O)N[C@@H](Cc1ccc(O)cc1)C(=O)N[C@@H](CC(N)=O)C(=O)N[C@@H](CCCN=C(N)N)C(=O)NCC(=O)O [VDKPPYLPRPRYPRRIYNRG]
MIC [16]: 0.0597 µM (≈ 0.15 µg/mL)

Compound: NC(N)=NCCC[C@H](NC(=O)[C@H](CCCN=C(N)N)NC(=O)[C@H](CCCN=C(N)N)NC(=O)[C@H](CCCN=C(N)N)NC(=O)[C@H](CCCN=C(N)N)NC(=O)[C@H](CCCN=C(N)N)NC(=O)[C@H](CCCN=C(N)N)NC(=O)[C@H](CCCN=C(N)N)NC(=O)[C@@H](N)Cc1c[nH]c2ccccc12)C(=O)O [WRRRRRRRR]
MIC (Pseudomonas aeruginosa): > 44 µM | MIC (Streptococcus pyogenes): 2.75 µM (≈ 4 µg/mL) | MIC (Proteus mirabilis): ≥ 44 µM | MIC (Staphylococcus aureus): 22 µM (≈ 32 µg/mL)

Next, values leading:

MIC [7]: 6 µM (≈ 14.1 µg/mL) | MIC [8]: 6 µM (≈ 14.1 µg/mL) | MIC [9]: 25 µM (≈ 58.7 µg/mL) | MIC [10]: 100 µM (≈ 235 µg/mL) | MIC [11]: 6 µM (≈ 14.1 µg/mL) | MIC (Acinetobacter baumannii): 6.25 µM (≈ 14.7 µg/mL) | MIC [12]: 6 µM (≈ 14.1 µg/mL) | MIC [13]: 12.5 µM (≈ 29.3 µg/mL) | MIC [14]: 3 µM (≈ 7.04 µg/mL)
Compound: CC[C@H](C)[C@H](NC(=O)CN)C(=O)N[C@@H](Cc1c[nH]c2ccccc12)C(=O)N[C@@H](CCCCN)C(=O)N[C@H](C(=O)N[C@H](C(=O)N[C@@H](CCCCN)C(=O)N[C@@H](CO)C(=O)N[C@@H](CCSC)C(=O)NCC(=O)N[C@@H](CCCCN)C(=O)N[C@H](C(=O)N[C@@H](Cc1ccccc1)C(=O)N[C@@H](C)C(=O)NCC(=O)N[C@@H](CCCCN)C(=O)N[C@H](C(=O)N[C@@H](CCCCN)C(=O)N[C@@H](CCC(N)=O)C(=O)N[C@@H](CC(N)=O)C(=O)N[C@@H](CC(C)C)C(N)=O)[C@@H](C)CC)C(C)C)[C@@H](C)CC)[C@@H](C)O [GIWKTIKSMGKVFAGKIKQNL]

MIC (Candida albicans): > 128 µM | MIC (Escherichia coli MG1655): ≥ 128 µM | MIC [10]: > 128 µM | MIC [15]: > 128 µM
Compound: CSCC[C@H](NC(=O)[C@@H](NC(=O)[C@H](CCCCN)NC(=O)[C@H](Cc1cnc[nH]1)NC(=O)[C@H](CC(C)C)NC(=O)CN)C(C)C)C(=O)N[C@@H](CCCN=C(N)N)C(=O)N[C@@H](CCC(=O)O)C(=O)N[C@H](C(=O)N[C@@H](CC(C)C)C(=O)NCC(=O)N[C@@H](Cc1ccc(O)cc1)C(N)=O)C(C)C [GLHKVMREVLGY]

MIC (Candida albicans): 8 µM (≈ 17.4 µg/mL) | MIC (Escherichia coli MG1655): 1 µM (≈ 2.17 µg/mL) | MIC [10]: 8 µM (≈ 17.4 µg/mL) | MIC [15]: 8 µM (≈ 17.4 µg/mL)
Compound: CSCC[C@H](NC(=O)[C@@H](NC(=O)[C@H](CCCCN)NC(=O)[C@H](Cc1cnc[nH]1)NC(=O)[C@H](CC(C)C)NC(=O)CN)C(C)C)C(=O)N[C@@H](CCCN=C(N)N)C(=O)N[C@@H](CCCCN)C(=O)N[C@H](C(=O)N[C@@H](CC(C)C)C(=O)NCC(=O)N[C@@H](Cc1ccc(O)cc1)C(=O)N[C@@H](CC(C)C)C(=O)N[C@@H](CCCN=C(N)N)C(=O)N[C@@H](CC(N)=O)C(=O)N[C@H](C(=O)N[C@@H](Cc1ccc(O)cc1)C(=O)N[C@@H](CCCCN)C(N)=O)C(C)C)C(C)C [GLHKVMRKVLGYLRNVYK]

MIC (Candida albicans): > 128 µM | MIC (Escherichia coli MG1655): ≥ 128 µM | MIC [10]: > 128 µM | MIC [15]: > 128 µM
Compound: CSCC[C@H](NC(=O)[C@@H](NC(=O)[C@@H](N)CCCCN)C(C)C)C(=O)N[C@@H](CCCN=C(N)N)C(=O)N[C@@H](CCC(=O)O)C(=O)N[C@H](C(=O)N[C@@H](CC(C)C)C(=O)NCC(=O)N[C@@H](Cc1ccc(O)cc1)C(=O)N[C@@H](CCC(=O)O)C(=O)N[C@@H](CCCN=C(N)N)C(=O)N[C@@H](CC(N)=O)C(=O)N[C@@H](CO)C(=O)N[C@@H](Cc1ccc(O)cc1)C(=O)N[C@@H](CCCCN)C(N)=O)C(C)C [KVMREVLGYERNSYK]

MIC [2]: ≥ 62.2 µM | MIC [3]: ≥ 62.2 µM | MIC [4]: > 249 µM | MIC [5]: 31.1 µM (≈ 64 µg/mL)
Compound: CC[C@H](C)[C@H](NC(=O)[C@H](CC(C)C)NC(=O)[C@H](C)NC(=O)[C@H](CO)NC(=O)[C@@H](NC(=O)[C@H](CC(C)C)NC(=O)[C@@H](N)CC(N)=O)C(C)C)C(=O)N[C@@H](CCC(=O)O)C(=O)NCC(=O)N[C@@H](CCCN=C(N)N)C(=O)N[C@@H](CCCCN)C(=O)N[C@@H](Cc1ccc(O)cc1)C(=O)N[C@@H](CC(C)C)C(=O)N[C@@H](CCCCN)C(=O)N[C@@H](CC(N)=O)C(=O)N[C@H](C(=O)N[C@@H](CC(C)C)C(=O)N[C@@H](CCCCN)C(=O)O)C(C)C [NLVSALIEGRKYLKNVLK]

MIC [16]: 0.0886 µM (≈ 0.22 µg/mL)
Compound: CC[C@H](C)[C@H](NC(=O)[C@H](CCCN=C(N)N)NC(=O)[C@H](CCCN=C(N)N)NC(=O)[C@@H]1CCCN1C(=O)[C@H](CCSC)NC(=O)[C@H](CCCN=C(N)N)NC(=O)[C@@H]1CCCN1C(=O)[C@H](CCCN=C(N)N)NC(=O)[C@@H]1CCCN1C(=O)[C@H](CC(C)C)NC(=O)[C@H](Cc1ccc(O)cc1)NC(=O)[C@@H]1CCCN1C(=O)[C@@H]1CCCN1C(=O)[C@H](CCCCN)NC(=O)[C@H](CC(=O)O)NC(=O)[C@@H](N)C(C)C)C(=O)N[C@@H](Cc1ccc(O)cc1)C(=O)N[C@@H](CC(N)=O)C(=O)N[C@@H](CCCN=C(N)N)C(=O)NCC(=O)O [VDKPPYLPRPRMPRRIYNRG]
